Measured values taken from US6946456B2, “Methods for treating cell proliferative disorders and viral infections” (Sloan-Kettering Institute for Cancer Research, priority 2000, dated 2005).
“Also recorded” adds a separate entry of the source.

Key:
[1] = tested on: Rb-wild type cells (MCF7 and Colo 205); assay: Cell cycle analysis by flow cytometry of ethidium bromide-stained nuclei, Rb-wild type tumor cell lines; assay type: cell-based, human; settings: for cell cycle effect in tumor cell lines: 12 tumor cell lines examined, FIG. 1A
Protocol: (§1) The human breast cancer cell lines MB-MDA 468, MCF7 and BT-549 and the colon carcinoma cell line, Colo 205, were obtained from ATCC. Breast cell lines were maintained in DME-F12 media and Colo 205 cells in RPMI; both media were supplemented with 5% fetal calf serum (BRL), 2 mM glutamine and 50 u/ml each of penicillin and streptomycin. All cells were incubated at 37° C. in 5% C02. Cells were treated for 24 hours with 250 ng/ml herbimycin A (Gibco) dissolved in DMSO or 435 nM of radicicol (Sigma). After treatment the […] and analyzed by flow cytometry. Nuclei were isolated for flow cytometry assays stained with ethidium bromide and analyzed using a Becton Dickinson fluorescence-activated cell sorter. Statistical data was obtained using Multicycle program software.

[2] = tested on: tumor cell lines with mutated Rb (MB-MDA 468, BT-549, DU145 and DU4475); assay: Cell cycle analysis by flow cytometry of ethidium bromide-stained nuclei, tumor cell lines with mutated Rb; assay type: cell-based, human
Protocol: as §1

[3] = tested on: Rb-wild type Colo 205 cells; assay: Synchrony experiment: release from aphidicolin block, Colo 205; assay type: cell-based, human; settings: released into drug
Protocol: (§2) Nuclei were isolated for flow cytometry assays stained with ethidium bromide and analyzed using a Becton Dickinson fluorescence-activated cell sorter. Statistical data was obtained using Multicycle program software.
(§3) For synchrony experiments, cells were treated with 1 μg/ml aphidicolin (Sigma) for 18 hours, washed and replated in media containing DMSO or HA.

[4] = tested on: primary human foreskin keratinocytes (HFK); assay: Cell cycle analysis in primary human foreskin keratinocytes; assay type: cell-based; settings: 24 hours
Protocol: (§4) Primary human foreskin keratinocytes transfected with HPV-1 6 E6 and E7 were provided by Drs. H. Stöppler and R. Schlegel (Georgetown Univ.) and grown as previously described. Primary human foreskin keratinocytes or HPV 16 E6/E7 transfected human foreskin keratinoytes were treated with HA or DMSO for 24 hours and ethidium bromide stained-nuclei analyzed by flow cytometry as described above.

[5] = tested on: cyclin A-associated kinase activity; assay: Immunoprecipitation and in vitro kinase assay (histone H1), cyclin A; assay type: cell-based, human; settings: MB-MDA 468, arrested cells compared to control cells
Protocol: (§5) Levels of mitotic cyclin expression and associated kinase activities in herbimycin arrested MB-MD468 cells were assessed using immunoblot analysis and in vitro kinase assays as described below. Cells cultured with herbimycin were enriched for mitotically arrested cells by using only the loosely adherent population in which the mitotic index was greater than 90%.
(§6) For immunoprecipitation, 100 μg of total protein was incubated with anticyclin A or anti-cyclin B1 (Santa Cruz) antibodies for 2 hours at 4° C. and then for 1 hour following the addition of protein A-Sephaliose. The immune complexes were washed 4× with lysis buffer and boiled in SDS-PAGE sample buffer for 5 min. Following SDS-PAGE, proteins were transferred onto Immobilon and analyzed by western blotting.
(§7) For in vitro kinase reactions, immune complexes were washed 4× with lysis buffer, 2× with kinase buffer (20 mM Tris pH 7.4, 7.5 mM MgCl2, 1 mM DTT) and incubated in 40 μl of kinase buffer containing 2 μg histone H1, 10 μCi [γ-^32P] ATP and 300 μM ATP for 10 min at 37° C. The reaction was stopped by the addition of SDS-PAGE sample buffer and boiled for 5 min. Proteins were resolved on SDS-PAGE, transferred onto Immobilon and exposed to autoradiography film or phosphoimager screen. Kinase activity was quantitated by FUJIX phosphoimager and MacBAS program software.

[6] = tested on: cyclin B1-associated kinase activity; assay: Immunoprecipitation and in vitro kinase assay (histone H1), cyclin B1; assay type: cell-based, human; settings: MB-MDA 468, loosely adherent mitotically arrested cells
Protocol: as §5, §6, §7

[7] = tested on: cyclin B1 protein expression; assay: Immunoblot analysis of cyclin B1 expression; assay type: cell-based, human; settings: MB-MDA 468, compared to control
Protocol: as §5
(§8) Immunoblot analysis of lysates from cells treated with DMSO, nocodazole or herbimycin were analyzed by Western blot analysis using anti-cyclin A or anti-B1 antibodies. Treated cells were harvested, washed with PBS and lysed in NP40 lysis buffer (50 mM Tris pH7.4, 1% NP40,150 mM NaCl, 40 mM NaF. 1 mM Na3VO4, 1 mM phenylmethylsulfonlylfluoride, and 10 μg/ml. each of leupeptin, aprotinin and soybean trypsin inhibitor) for 30 min on ice. Lysates were centrifuged at 15,000×g for 10 min and protein concentration determined by bicinchoninic acid protein assay (Pierce). Equal amounts of total protein were resolved by SDS-PAGE and transferred onto Immobilon PVDF membranes (Millipore) by electroblotting. Blots were blocked overnight in 5% nonfat milk in TBS-T (0.1% Tween-20 TBS, 10 mM Tris pH 7.4, 150 mM NaCl) at 4° C. and subsequently probed with either anti-cyclin A or cyclin B1 antibodies (Santa Cruz Biotechnology). Following incubation with HRP-conjugated secondary antibodies, proteins were detected by chemiluminescence (Amersham).

[8] = tested on: Rb transfected MB-MDA 468 cells (468-7 and 468-19); assay: Cell cycle analysis in Rb transfected MB-MDA 468 cells; assay type: cell-based, human
Protocol: (§9) To further confirm that the gene product of the Rb gene permits progression through mitosis in the presence of an HSP90 inhibitor, MB-MDA 468 cells were transfected with the plasmid pUHD1 0-3HGR containing full-length 4.7 kb human Rb cDNA. Rb transfectants were grown in DME-F12 media supplemented with 5% fetal calf serum (BRL), 2 mM glutamine and 50 μg/ml each of penicillin and streptomycin and 100 μg/ml hygromycin B (Boehringer Mannheim). To confirm the presence of the Rb gene product Western blot analysis was carried out using anti-Rb antibodies (Pharmingen) as described herein. Vector control, MB-MDA 468, and Rb transfected MB-MDA 468 cells were arrested with aphidicolin as described above. After release from aphidicolin arrest, transfected and non-transfected MM-MDA 468 cells were cultured in the presence of an ansamycin inhibitor as described in Example 1. Cell progression was monitored by flow cytometric analysis of ethidium bromide-stained nuclei as described above.

cyclin A expression = assay: Immunoblot analysis of cyclin A expression; assay type: cell-based, human; settings: MB-MDA 468, arrested cells compared to control cells
Protocol: as §5, §8

MB-MDA 468 cells [9] = assay: Immunofluorescent analysis (bisbenzimide, anti-α-tubulin, ACA/CREST); assay type: cell-based, human
Protocol: For immunofluorescent analysis, harvested cells were washed with PBS, fixed with methanol for 20 min at −20° C., washed again and blocked for 30 min with 2% BSA in PBS. Cells were then stained with anti-α-tubulin (Sigma) and anti-centromere protein antibodies (ACA/CREST) (gift of Dr. J. D. Rattner) in 2% BSA PBS for 1 hour. Following 3 washes with 0.5% BSA in PBS, cells were incubated with anti-human FITC conjugated, antimouse rhodamine conjugated antibodies (Molecular Probes) and 2 μg/ml bisbenzimide in 2% BSA in PBS for 45 min. Cells were then washed 4× with 0.5% BSA in PBS, resuspended in PBS and images captured by confocal microscopy or with a CCD camera. Images were then processed using Slidebook 3.0 and Adobe Photoshop program software.

[10] = tested on: HPV 16 E6/E7 transfected human foreskin keratinocytes; assay: Cell cycle analysis in HPV 16 E6/E7 transfected human foreskin keratinocytes; assay type: cell-based; settings: 24 hours
Protocol: as §4

MB-MDA 468 cells [11] = assay: Mitotic index by bisbenzimide staining; assay type: cell-based, human
Protocol: For mitotic indices, cells were typsinized, washed with PBS and fixed with 3% paraformaidehyde in PBS for 20 min. Cells were then stained with 3 μg/ml bisbenzimide (Hoechst 33258; Sigma) for 15 min and examined under fluorescence microscopy. Mitosis was scored by the presence of condensed chromosomes.

[12] = tested on: Rb-negative MB-MDA 468 cells; assay: Synchrony experiment: release from aphidicolin block, MB-MDA 468; assay type: cell-based, human; settings: released into drug
Protocol: as §2, §3, §9

## C=CCNC1=C2C[C@@H](C)C[C@H](OC)[C@H](O)[C@@H](C)/C=C(\C)[C@H](OC(N)=O)[C@@H](OC)/C=C\C=C(/C)C(=O)NC(=CC1=O)C2=O [17-AAG, 17-allylamino-(17)-demethoxygeldanamycin]
[1]
  cell cycle effect in tumor cell lines: growth arrest in G1
[2]; Rb-dependent
  cell cycle profiles and mitotic phenotype compared with HA: same Rb-dependent cell cycle profiles and mitotic phenotype as observed with HA

## CO[C@H]1[C@@H](OC)C[C@H](C)[C@@H](OC)C2=CC(=O)C=C(NC(=O)/C(C)=C/C=C\[C@H](OC)[C@@H](OC(N)=O)/C(C)=C/[C@@H]1C)C2=O [HA, herbimycin A]
[3]
  cell cycle progression after release from aphidicolin block: complete mitosis; also recorded: progressed through G2 and mitosis and were arrested in the next G1
[4]
  cell cycle effect in primary HFK cells: accumulate in G1
[1]
  cell cycle effect in tumor cell lines: growth arrest in G1
[5]
  cyclin A-associated kinase activity: slightly lower
[6]
  cyclin B1-associated kinase activity, elevation compared to control: 5 fold
[7]
  cyclin B1 protein expression: increased
[8]; clones 468-7 and 468-19, asynchronous
  cell cycle effect in Rb-transfectants: increase in G1 and had no effect on G2/M; also recorded: no effect on G2/M in the Rb-transfectants and instead caused an increase in G1
[8]; clones 468-7 and 468-19, released into drug
  cell cycle progression of Rb transfectants after release from aphidicolin block: cycled through mitosis and entered G1; also recorded: abrogates HA-induced mitotic arrest
Cyclin A expression
  cyclin A expression: slightly lower
MB-MDA 468 cells [9]; 77 chromosomes localized to the poles
  chromosomes localized to the poles scored as double dots for ACA staining: 87%
MB-MDA 468 cells [9]; arrested Rb-negative cells
  spindle formation (α-tubulin staining): arrested cells contained bipolar spindles
MB-MDA 468 cells [9]; arrested Rb-negative cells, in most cells
  chromosomal distribution (bisbenzimide and ACA/CREST staining): chromosomes localized both to the poles and within the spindle
[10]
  cell cycle effect in E6/E7 transfectants: arrested with 4n DNA content; also recorded: mitotic arrest and not G1 arrest
MB-MDA 468 cells [11]; MB-MDA 468, enriched for mitotically arrested cells
  mitotic index of the loosely adherent population: greater than 90%
MB-MDA 468 cells [11]; MB-MDA 468 cells, treated population, control 5-10%
  mitotic index (cells in mitosis): 60-70%
[12]
  time to arrest in the next mitosis after release from aphidicolin: ≤ 12 h
[2]; MB-MDA 468, BT-549, DU145 and DU4475, 250 ng/ml, 24 hours, FIG. 1B
  cell cycle effect in tumor cell lines with mutated Rb: accumulation of cells with 4n DNA content
[2]; control transfectants (MB-MDA 468 cells)
  cell cycle effect in control transfectants: accumulated with 4n DNA content

## C[C@@H]1C[C@H]2O[C@@H]2/C=C\C=C\C(=O)Cc2c(Cl)c(O)cc(O)c2C(=O)O1 [Radicicol]
[1]; Colo205 and MCF7, 435 nM, 24 hours
  cell cycle effect in Rb-positive cell lines: induced G1 arrest
MB-MDA 468 cells [9]; MDA 468 cells, radicicol-arrested
  chromosomal distribution in arrested MDA 468 cells: chromosomes localized to the poles as well as strewn along the spindle
[2]; MDA-468, 435 nM, 24 hours
  cell cycle effect in Rb-negative MDA-468 cells: accumulation of cells with 4n DNA content

## COC(=O)Nc1nc2ccc(C(=O)c3cccs3)cc2[nH]1 [nocodazole]
[5]
  cyclin A-associated kinase activity: slightly lower
Cyclin A expression
  cyclin A expression: slightly lower
